In patent publication US5780489A, “Method for treating amyotrophic lateral sclerosis” (priority 1996, dated 1998):
“Also recorded” adds a separate entry of the source. Where two headings read alike, the source gives them in different places.

Key:
human cells = settings: cited from earlier work
[1] = by an esterase; cited from earlier work
[2] = esterase activity absent in human plasma; cited from earlier work
[3] = system: rat cerebrospinal fluid (CSF); settings: Shikama et al. 1995, cited from earlier work; for rate of uptake into rat cerebrospinal fluid: GSH versus GSH isopropyl ester
cellular ischemia = settings: H Shikama et al., 1995; cited from earlier work
[4] = system: γ-glutamyl transpeptidase; settings: proposed by Shikama et al.; cited from earlier work
cells [5] = settings: cited from earlier work
cells [6] = settings: Puri and Meister, 1983; cited from earlier work
[7] = Meister et al., 1986; cited from earlier work
[8] = Meister et al., 1986; cited from earlier work; remark: listed apart in the source
ALS patients [9] = settings: cited from earlier work; for survival in ALS (in words): human, in vivo
[10] = B Olsson et al., 1988; cited from earlier work
[11] = system: chronic organotypic spinal cord cultures; settings: in vitro, after SOD1 anti-sense oligonucleotides; cited from earlier work
GSH levels in rat brains = settings: cited from earlier work
[12] = system: intracellular glutathione levels; settings: cited from earlier work
patients with ALS = assay: progression of ALS, phase II trial of OTZ and Riluzole versus Riluzole alone; assay type: in vivo, human; settings: 9 months, 3000 mg p.o. t.i.d.
Experimental: 5.3. OTZ in ALS Patients: Phase II Trial
A phase II, bi-center, double-blind randomized controlled comparison trial of the efficacy of OTZ and the anti-glutamate agent, Riluzole, versus Riluzole alone in slowing of disease progression in patients with ALS (50 at each center) is performed. Patients receive treatment for 9 months. Riluzole is approved for marketing by the FDA.
The OTZ and placebo capsules are identical in appearance. Riluzole is administered as tablets obtained from the manufacturer. Riluzole is administered at 50 mg bid to all subjects. The OTZ dose is the same as used in the Phase I study, 3000 mg p.o. t.i.d. However, the final determination of OTZ dose may be modified. Half the subjects receive active OTZ capsules and the other half receive identical appearing placebo capsules.
The primary outcome measure is change in motor and pulmonary function after 9 months of experimental therapy as tested with the Tufts Quantitative Neuromuscular Exam ([…]) and FVC. The secondary outcome measure is based upon ALS Functional Rating Scores.
Analysis is done on an intention to treat basis. The primary analysis tests the difference in average slopes of arm megascores between the OTZ and Riluzole combination and Riluzole alone groups using a two-way ANOVA with treatment and center in the model, with a two-sided alpha=0.05. […]

5-oxoprolinase = settings: cited from earlier work
adverse experiences = assay type: in vivo, human; settings: only minor
Description: The risk of any of these side effects occurring is small; however, should they occur, the dose of medication is reduced or discontinued entirely. However, OTZ is an experimental drug and unexpected side effects may occur.

[13] = system: GSH levels in some cell types; settings: Williamson et al. 1981; cited from earlier work
[14] = OTZ pharmacokinetics (plasma elimination and oral absorption); assay type: in vivo, human
Experimental: The synthesis of glutathione, an endogenous antioxidant, is often limited by the supply of intracellular cysteine, one of the component amino acids of glutathione. […] Some of these patients continued taking OTZ capsules (up to 9 grams/day) for over two years.
Subjects with ALS were enrolled in a tolerability, pharmacokinetics and pharmacodynamics study of OTZ in ALS patients. In this study, glutathione and cysteine levels in whole blood and CSF and OTZ pharmacokinetics were determined in ten to twenty subjects with ALS. Blood was obtained for baseline glutathione and cysteine levels. A spinal catheter was inserted and baseline CSF samples collected for determination of glutathione and cysteine levels. OTZ (90 ml 5% OTZ injection=4500 mg OTZ) was administered by intravenous infusion through a peripheral vein over 60±10 minutes. At various time points after the start of the OTZ infusion, blood and CSF samples were drawn for determination of OTZ and glutathione levels. The following day, subjects started taking OTZ capsules (3000 mg t.i.d.) for 28 days. After 7 and 14 days of treatment with OTZ capsules, blood was drawn for analyses of safety parameters, glutathione, cysteine and OTZ levels. On the last day of the treatment period, blood and CSF samples were drawn for analysis of OTZ, glutathione, and cysteine levels. The study endpoints were tolerability, and pharmacokinetic and pharmacodynamic data. Safety was determined by clinical history and examination, quantitative neuromuscular examination and a panel of safety laboratory tests. Nine subjects completed the study and samples are analyzed. In addition, CSF was drawn from patients without severe neurological disorders and the GSH levels are analyzed and compared to the levels for ALS patients.

ALS patients [15] = settings: two controlled studies; cited from earlier work
[16] = system: transgenic mice which overexpress the mutant SOD1 protein; settings: small, but statistically significant; cited from earlier work
[17] = system: glutamate release at pre-synaptic terminals; settings: cited from earlier work
[18] = in vivo; cited from earlier work

SMILES: CCOC(=O)CNC(=O)[C@H](CS)NC(=O)CC[C@H](N)C(=O)OCC [GSH diethylester]
- entry into human cells (human cells): even more efficiently transported into human cells than the monoester
- intracellular GSH levels in human cells (human cells): increase of intracellular GSH levels
- conversion to monoethyl (glycyl) ester in rodent blood plasma [1]: readily converted to monoethyl (glycyl) ester in rodent blood plasma
- stability in human blood [2]: stable in human blood

SMILES: CC(C)OC(=O)CNC(=O)[C@H](CS)NC(=O)CC[C@H](N)C(=O)O [GSH isopropyl ester, glutathione isopropyl ester]
- rate of uptake into rat cerebrospinal fluid [3]: the same
- total GSH (sum of GSH and GSH ester) in rat CSF [3]: only the ester increased the total GSH
- stability in CSF ([3]; versus GSH): more stable that GSH in the CSF
- protection against cellular ischemia (cellular ischemia): provide protection against cellular ischemia
- affinity for γ-glutamyl transpeptidase [4]: reduced affinity

SMILES: CCOC(=O)CNC(=O)[C@H](CS)NC(=O)CC[C@H](N)C(=O)O [GSH monoethylester]
- entry into human cells (human cells): able to enter human cells
- intracellular GSH levels in human cells (human cells): increase in GSH levels

SMILES: N[C@@H](CCC(=O)N[C@@H](CS)C(=O)NCC(=O)O)C(=O)O [GSH, L-γ-glutamyl-L-cysteinylglycine]
- rate of uptake into rat cerebrospinal fluid [3]: the same
- effect of administration on intracellular GSH levels (cells [5]; Meister, U.S. Pat. No. 4,879,370): has not led to increased intracellular GSH levels
- transport into cells (cells [5]): not transported efficiently into cells; also recorded: not efficiently transported into most animal cells
- protection of cells against toxic compounds (cells [6]): can protect some cells against toxic compounds

SMILES: N[C@@H](CS)C(=O)O [L-cysteine]
- toxicity of high extracellular levels [7]: high extracellular levels of cysteine can be toxic
- transport into cells (cells [5]): not transported efficiently into cells
- transport into cells (cells [5]; listed as cysteine): not efficiently transported into most animal cells
- oxidation at neutral pH [8]: oxidized spontaneously at neutral pH

SMILES: CC(=O)N[C@@H](CS)C(=O)O [N-acetylcysteine (NAC), N-acetylcysteine]
- survival in ALS (in words) (ALS patients [9]): trend towards increasing survival in ALS patients
- bioavailability in human studies [10]: low bioavailability
- reversal of death process in spinal cord cultures [11]: reversed

SMILES: O=C1N[C@H](C(=O)O)CS1 [OTZ, L-2-oxothiazolidine-4-carboxylic acid]
- GSH levels in rat brains (GSH levels in rat brains; Anderson and Meister 1989): no effect or only slightly increased GSH levels
- level of GSH in rat brains (GSH levels in rat brains; subcutaneous injections, Mesina et al. 1989): statistically significant increase in the level of GSH in rat brains
- intracellular glutathione levels in animal models [12]: increases intracellular glutathione levels in animal models
- rate of progression of ALS (patients with ALS): slows the rate of progression of ALS
- conversion to cysteine (enzyme required) (5-oxoprolinase): requires the enzyme 5-oxoprolinase
- metabolism by 5-oxo-L-prolinase (5-oxoprolinase; in vitro, in the presence of adenosine triphosphate): subjected to the action of 5-oxo-L-prolinase in the presence of adenosine triphosphate to produce S-carboxyl cysteine
- adverse experiences associated with OTZ (adverse experiences): stomach upset, dizziness, insomnia, nausea, restlessness and headache
- increase of GSH levels in some cell types [13]: effective in increasing GSH levels in some cell types
- elimination from plasma ([14]; after oral or intravenous administration): rapidly eliminated from plasma
- absorption after oral administration ([14]; oral): readily absorbed after oral administration
- half-life ([14]; plasma, after oral or intravenous administration, read-out: T1/2 (elimination from plasma)): 1 to 2 h

SMILES: Nc1nc2ccc(OC(F)(F)F)cc2s1 [Riluzole]
- improvement in strength (ALS patients [15]): without a concomitant improvement in strength
- prolongation of survival in transgenic SOD1 mutant mice [16]: 11%
- release of glutamates at pre-synaptic terminals [17]: inhibits release of glutamates at pre-synaptic terminals
- prolongation of survival of ALS patients (ALS patients [9]; G Bensimon et al., 1994): 12%
- survival in ALS (in words) (ALS patients [9]): extend survival in ALS; also recorded: improve survival in ALS; also recorded: small affect on survival
- prolongation of lifespan in patients with ALS (ALS patients [9]; two studies, statistically significant, but small, G Bensimon et al., 1994): 18%
- known adverse experiences associated with Riluzole therapy [18]: asthenia, fatigue and asymptomatic elevation of liver function tests
